Reference: patent publication US8409859B2, “Differentiation of non-embryonic stem cells to cells having a pancreatic phenotype” (Regents of the University of Minnesota, priority 2005, dated 2013)

Columns and labels:
[1] = system: rat MAPCs; assay: Cytokine mediated differentiation of rat MAPCs, Q-RT-PCR and cell survival; assay type: cell-based; conditions: activin-A, BMP4 and cyclopamine or anti-SHH Ab withdrawn after d6, cells then maintained with the factor
Method: For Q-RT-PCR reactions described herein, the primer sequences are presented in Tables 3-5 and the following protocols were used: RNA was extracted from the cells with the aid of the RNeasy Mini Kit (Qiagen; Valencia Calif.), followed by a DNase Treatment with DNA-Free™ (Ambion, Austin, Tex.). The RNA was reverse transcribed with TaqMan (Applied Biosystems, Foster City, Calif.; Step 1 (Incubation): 25° C., 10 min; Step 2 (RT): 48° C., 30 min; Step 3 (RT Inactivation): 95° C., 10 min).
Following reverse transcription, Quantitative Real Time PCR (Q-RT-PCR) was performed as follows: Step 1: 50° C., 2 min (Incubation); Step 2: 95° C., 10 min (Taq activation); Step 3: 95° C., 15 sec (Denaturation) followed by 60° C., 1 min (Extension) and repeat for 40 cycles; Step 4: 95° C., 15 sec (Dissociation); Step 5: 60° C., 20 sec (Melting curve); Step 6: 95° C., 15 sec.
In an initial series of studies, the effect of cell density (about 10^4-10^5 cells/cm^2), ECM component (fibronectin, collagen, matrigel) and different concentrations (10-100 ng/mL) of bFGF (10-100 ng/mL), FGF2 (10-100 ng/mL), Activin A (e.g., about 10 ng/mL to about 100 ng/mL), BMP4 (e.g., about 10 ng/mL to about 50 ng/mL), retinoic acid (about 10^−6M), EGF (e.g., about 10 to about 100 ng/mL), FGF10 (e.g., about 50 to about 150 ng/mL, including about 100 ng/mL), HGF (e.g., about 10 to about 100 ng/mL), GDF11 (e.g., about 50 to abut 150 ng/mL), cyclopamine (e.g., about 10 μM), anti-SHH antibody (Ab; e.g., about 10 μg/mL), nicotinamide (e.g., 5 μM to about 50 μM, including about 10 μM), exendin 4 (about 5 nM to about 50 nM, including about 10 nM), betacellulin (e.g., about 50 to abut 150 ng/mL) alone or in combinations of 2 or 3 and in different temporal sequences, on the induction of transcription factors, insulin, glucagon and somatostatin expression levels after 6, 12 and 18 days using Q-RT-PCR was determined.
Subsequent addition of factors believed to play a role in further proliferation and differentiation from pancreas-committed cells to mature endocrine pancreas, including EGF (e.g., about 50 ng/mL), HGF (e.g., about 50 ng/mL) and FGF10 (e.g., about 100 ng/mL), either alone or in combination was tested. […] Further optimization was obtained by adjusting the duration of the different steps along the differentiation course, as well addition of β-cellulin (50 ng/mL).

[2] = system: human MAPCs; conditions: about 10 ng/mL LIF; cited from earlier work
[3] = system: murine MAPCs; conditions: about 10 ng/mL LIF added to PDGF-BB and EGF culture; cited from earlier work

EGF: epidermal growth factor
cell survival [1]: significantly better

HGF: mitogenic protein used at about 50 ng/mL
cell survival [1]: significantly better

LIF: leukemia inhibitory factor, culture supplement
short-term cell growth (cell doubling time till 25 cell doublings, Oct 4 expression) [2]: did not affect short-term cell growth
cell growth [3]: significantly enhanced cell growth
